Measured values: patent US20240189263A1, “DERIVATIZED C60 MOLECULES AND METHODS AND MATERIALS FOR USING DERIVATIZED C60 MOLECULES TO REDUCE RADIATION INJURY” (Mayo Foundation for Medical Education and Research, priority 2021, published 2024)

Columns and labels:
[1] = Stability of C60-ser, hexakis-adduct peak by HPLC-ELSD; type: physicochemical
Protocol: Stability of the C60-ser product as prepared in Example 1 was analyzed by measuring the hexakis-adduct peak with high performance liquid chromatography (HPLC) equipped with evaporative light scattering detector (ELSD). The C60-ser was stored as a solid form at 4° C. under nitrogen, as a solution in DI water at 4° C., and as a solution in DI water at room temperature. The stability of the C60-ser in each set of storage conditions was measured at 1, 7, 28, and 120 days (Table 1).

[2] = SEM analysis of C60-ser aggregates; type: physicochemical; conditions: frozen and vacuum-dried solutions
Protocol: Solutions of C60-ser were frozen with liquid nitrogen and dried under high vacuum while still frozen. FIGS. 3A and 3B show example scanning electron microscopy (SEM) images of aggregates of C60-ser. The aggregates formed when solid C60-ser was dissolved in water or an aqueous salt solution. The aggregates formed within a period of seconds to several hours, after which the system remained in equilibrium.

[3] = Dynamic light scattering analysis of C60-ser aggregates; type: physicochemical; conditions: for Predominant aggregate sizes: in PBS
Protocol: Dynamic light scattering (DLS) was used to observe the aggregation process of C60-ser. Dynamic light scattering heatmaps were created by combining multiple normalized particle number weighted distribution (PNWD) plots. The PNWD plots compared the log of the relative scattering intensity versus particle size, at angles of 173°. The refractive index was assumed to be n=1.34, the absorption constant to be k=0.001, and the solution viscosity to be that of water, corrected for temperature (η=0.888 mPa s). Plots were collected with a 0.2° C. interval. Each temperature interval was held constant for more than 45 minutes before performing the next measurement, to ensure the presence of an aggregation equilibrium.

[4] = test system: NIH3T3 cells; assay: DNA damage, γH2AX foci immunofluorescence, NIH3T3; type: cell-based
Protocol: (§1) To test the ability of C60-ser to protect against radiation injury, the level of DNA damage in response to radiation was analyzed by measuring γH2AX. The H2AX protein becomes phosphorylated into γH2AX as a result of DNA double strand breaks. This allows for the visualization and quantification of double strand break foci through immunofluorescence analysis. Cells were plated on 8 chamber slides and incubated overnight before C60-ser treatment. Three sets of slides per cell line (to be irradiated with 0, 0.5, and 1 Gy) were prepared, with the top 4 rows used as a control and the bottom 4 rows incubated with 100 μM C60-ser. Cells were incubated with C60-ser for 2 hours before irradiation with a clinical Proteus One proton machine (Ion Beam Applications, Louvain-la-Neuve, Belgium). A 230 MeV mono-energetic unmodulated broad beam of large field size that encompassed all slides containing the cells was used to deliver the 0.5 and 1 Gy doses. White solid water slabs (IBA Dosimetry, Germany) provided the necessary phantom material to place the cells at the desired 8 cm depth with an LET of approximately 1.7 keV/μm. After irradiation, cells were incubated at 37° C. with 5% CO2 for 30 minutes before washing and fixing the cells with 1% formaldehyde. The cells were permeabilized with 1% NP-40 and incubated with 5% BSA to block unspecific antibody bonding. The cells were then incubated with γH2AX primary antibody followed by a secondary antibody. Mounting media containing DAPI was used before applying cover slips and sealing the samples. Cells were imaged on an Olympus IX71 trinocular inverted fluorescence phase contrast microscope with a 40× objective. The resulting images were analyzed by ImageJ, and the foci were counted.

[5] = test system: HepG2 cells; assay: DNA damage, γH2AX foci immunofluorescence, HepG2; type: cell-based
Protocol: as §1

[6] = test system: HUVEC cells; assay: Seahorse mitochondrial respiration (oxygen consumption rate), HUVEC; type: cell-based; conditions: pretreated 2 hours before 1 Gy 230 MeV proton
Protocol: The oxygen consumption rates were assessed in N2A, HUVEC, NIH3T3, and HepG2 cell lines with a Seahorse XFe96 (Agilent Technologies, Santa Clara, CA, USA). Cells were treated with 0 and 1 Gy of 230 MeV proton irradiation. The control plates were run at about the same time post plating. Each cell line was optimized prior to these experiments, and data was presented normalized to cell number plated. The standard mitochondrial stress test was performed using serial injections of oligomycin (1.5 μM), carbonyl cyanide p-(trifluoromethoxy)phenylhydrazone (FCCP, 1 μM), and rotenone/antimycin A mixture (0.5 μM). After injection of oligomycin, which inhibits ATP synthase (complex V), there was a drop in electron flow through the electron transport chain (ETC) and a resultant drop in oxygen consumption rate (OCR) of the cells. Injection of FCCP collapsed the proton gradient and allowed for uninhibited electron flow through the ETC supercomplexes. […] The reserve respiratory capacity was calculated by subtracting the basal respiratory capacity from the maximal respiratory capacity.

## O=C(NC(CO)CO)C1(C(=O)NC(CO)CO)C23c4c5c6c7c8c4-c4c2c2c9c%10c4C4%11c%12c-%10c%10c%13c%14c%12-c%12c(c-7c7c%15c%12C%14%12C(C(=O)NC(CO)CO)(C(=O)NC(CO)CO)C%12%14c%12c%16c%17c%18c(c%12-%15)C7%12C(C(=O)NC(CO)CO)(C(=O)NC(CO)CO)C6%12c6c-5c5c7c(c6-%18)C%176C(C(=O)NC(CO)CO)(C(=O)NC(CO)CO)C6%12c6c-7c(c-2c2c6-c6c%12c-%16c%14c-%13c6C%106C(C(=O)NC(CO)CO)(C(=O)NC(CO)CO)C926)C513)C84C%11(C(=O)NC(CO)CO)C(=O)NC(CO)CO (stereo not drawn) [C60-ser, C60-serinol]
[1]; Solid form at 4° C. under nitrogen, 1 day
  Stability of C60-ser (hexakis-adduct peak): 100 ± 2%
[1]; Solid form at 4° C. under nitrogen, 7 days
  Stability of C60-ser (hexakis-adduct peak): 100 ± 1%
[1]; Solid form at 4° C. under nitrogen, 28 days
  Stability of C60-ser (hexakis-adduct peak): 100 ± 1%
[1]; Solid form at 4° C. under nitrogen, 120 days
  Stability of C60-ser (hexakis-adduct peak): 100 ± 2%
[1]; Solution in DI water at 4° C., 1 day
  Stability of C60-ser (hexakis-adduct peak): 100 ± 2%
[1]; Solution in DI water at 4° C., 7 days
  Stability of C60-ser (hexakis-adduct peak): 100 ± 2%
[1]; Solution in DI water at 4° C., 28 days
  Stability of C60-ser (hexakis-adduct peak): 100 ± 3%
[1]; Solution in DI water at 4° C., 120 days
  Stability of C60-ser (hexakis-adduct peak): 98 ± 3%
[1]; Solution in DI water at room temperature, 1 day
  Stability of C60-ser (hexakis-adduct peak): 100 ± 2%
[1]; Solution in DI water at room temperature, 7 days
  Stability of C60-ser (hexakis-adduct peak): 100 ± 2%
[1]; Solution in DI water at room temperature, 28 days
  Stability of C60-ser (hexakis-adduct peak): 96 ± 3%
[1]; Solution in DI water at room temperature, 120 days
  Stability of C60-ser (hexakis-adduct peak): 95 ± 4%
[1]; solid at 4° C. under nitrogen
  degradation of the hexakis-adduct peak: no degradation of the hexakis-adduct peak was observed
[2]
  internal diameters of hollow hull aggregates: 40-1000 nm
[3]; 0.1 mg/mL, 37 ° C.
  Predominant aggregate sizes: 260 ± 38 nm
[3]; 10 mg/mL, 4 ° C.
  Predominant aggregate sizes: 290 ± 73 nm
[3]; 10 mg/mL, 37 ° C.
  Predominant aggregate sizes: 233 ± 56 nm
[3]; dynamic equilibrium in water
  size of aggregates: 100-2000 nm
  size of conjugate monomers: ~3 nm
[3]; initially, when dissolved in water
  diameters of individual molecules: 3-4 nm
[4]; NIH3T3, 100 μM 2 hours before 0.5 Gy proton radiation
  γH2AX foci vs control: trend towards reduction in total foci formed, but it was not statistically significant
[4]; NIH3T3, 100 μM 2 hours before 1 Gy proton radiation
  γH2AX foci vs control: significant decrease in the number of foci
[4]; NIH3T3, 100 μM 2 hours, absence of radiation
  γH2AX foci vs control: no significant different in foci expression
[5]; HepG2, 100 μM 2 hours before 0.5 Gy proton radiation
  γH2AX foci vs control: trend towards reduction in total foci formed, but it was not statistically significant
[5]; HepG2, 100 μM 2 hours before 1 Gy proton radiation
  γH2AX foci vs control: significant decrease in the number of foci
[5]; HepG2, 100 μM 2 hours, absence of radiation
  γH2AX foci vs control: no significant different in foci expression
[6]
  radiation-induced increase in respiratory capacity: dampened and, in some cases, reduced to normal or slightly below normal levels
